Data from US10906873B2, “Substituted cyclic amides as herbicides” (FMC Corporation, priority 2015, dated 2021).

Key:
Type in all cases: in vivo
[1] = system: ryegrass, It. (Italian ryegrass, Lolium multiflorum); experiment: Test A postemergence, ryegrass, It.; conditions: 0 to 100 scale
Summary of the method: (§1)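 Visual injury ratings, 0 = no effect to 100 = complete control, made versus untreated controls after about 10 d in greenhouse. Chemicals formulated in solvent mixture containing surfactant were sprayed on loam-sand soil after seeding (preemergence) or onto plants at one- to two-leaf stage, 2-10 cm (postemergence).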

[2] = system: foxtail, giant (giant foxtail, Setaria faberii); experiment: Test A postemergence, foxtail, giant; conditions: 0 to 100 scale
Summary of the method: as §1

[3] = system: ryegrass, It. (Italian ryegrass, Lolium multiflorum); experiment: Test A preemergence, ryegrass, It.; conditions: 0 to 100 scale
Summary of the method: as §1

[4] = system: blackgrass (Alopecurus myosuroides); experiment: Test A postemergence, blackgrass; conditions: 0 to 100 scale
Summary of the method: as §1

[5] = system: barnyardgrass (Echinochloa crus-galli); experiment: Test A postemergence, barnyardgrass; conditions: 0 to 100 scale
Summary of the method: as §1

[6] = system: wheat (Triticum aestivum); experiment: Test A postemergence, wheat; conditions: 0 to 100 scale
Summary of the method: as §1

[7] = system: pigweed (Amaranthus retroflexus); experiment: Test A postemergence, pigweed; conditions: 0 to 100 scale
Summary of the method: as §1

[8] = system: ragweed (common ragweed, Ambrosia elatior); experiment: Test A preemergence, ragweed; conditions: 0 to 100 scale
Summary of the method: as §1

corn (Zea mays) = experiment: Test A postemergence, corn; conditions: 0 to 100 scale
Summary of the method: as §1

[9] = system: pigweed (Amaranthus retroflexus); experiment: Test A preemergence, pigweed; conditions: 0 to 100 scale
Summary of the method: as §1

[10] = system: ducksalad (Heteranthera limosa); experiment: Test B flooded paddy test, ducksalad; conditions: Flood, 250 g ai/ha; scale of 0 to 100 where 0 is no effect and 100 is complete control; 13 to 15 d
Summary of the method: (§2)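 Ratings use a 0-100 visual scale, where 100 is complete control, and compare treated plants with controls after 13 to 15 d of greenhouse growth. Compound went straight into paddy water kept 3 cm over the soil surface, applied to seedlings at the 2-leaf stage.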

kochia (Kochia scoparia) [11] = experiment: Test A postemergence, kochia; conditions: 0 to 100 scale
Summary of the method: as §1

[12] = system: ragweed (common ragweed, Ambrosia elatior); experiment: Test A postemergence, ragweed; conditions: 0 to 100 scale
Summary of the method: as §1

kochia (Kochia scoparia) [13] = experiment: Test A preemergence, kochia; conditions: 0 to 100 scale
Summary of the method: as §1

[14] = system: barnyardgrass (Echinochloa crus-galli); experiment: Test A preemergence, barnyardgrass; conditions: 0 to 100 scale
Summary of the method: as §1

[15] = system: sedge, umbrella (small-flower umbrella sedge, Cyperus difformis); experiment: Test B flooded paddy test, sedge, umbrella; conditions: Flood, 250 g ai/ha; scale of 0 to 100 where 0 is no effect and 100 is complete control; 13 to 15 d
Summary of the method: as §2

rice (Oryza sativa) = experiment: Test B flooded paddy test, rice; conditions: Flood, 250 g ai/ha; scale of 0 to 100 where 0 is no effect and 100 is complete control; 13 to 15 d
Summary of the method: as §2

[16] = system: galium (catchweed bedstraw, Galium aparine); experiment: Test A postemergence, galium; conditions: 0 to 100 scale
Summary of the method: as §1

[17] = system: foxtail, giant (giant foxtail, Setaria faberii); experiment: Test A preemergence, foxtail, giant; conditions: 0 to 100 scale
Summary of the method: as §1

[18] = system: barnyardgrass (Echinochloa crus-galli); experiment: Test B flooded paddy test, barnyardgrass; conditions: Flood, 250 g ai/ha; scale of 0 to 100 where 0 is no effect and 100 is complete control; 13 to 15 d
Summary of the method: as §2

Structure (SMILES) | Plant response rating, Ryegrass, It. ([1]; 125 g ai/ha) | Plant response rating, Ryegrass, It. ([1]; 500 g ai/ha) | Plant response rating, Foxtail, Giant ([2]; 125 g ai/ha) | Plant response rating, Foxtail, Giant ([2]; 500 g ai/ha) | Plant response rating, Ryegrass, It. ([3]; 125 g ai/ha) | Plant response rating, Ryegrass, It. ([3]; 500 g ai/ha) | Plant response rating, Blackgrass ([4]; 125 g ai/ha) | Plant response rating, Blackgrass ([4]; 500 g ai/ha) | Plant response rating, Barnyardgrass ([5]; 125 g ai/ha) | Plant response rating, Barnyardgrass ([5]; 500 g ai/ha) | Plant response rating, Wheat ([6]; 125 g ai/ha) | Plant response rating, Wheat ([6]; 500 g ai/ha) | Plant response rating, Pigweed ([7]; 125 g ai/ha) | Plant response rating, Pigweed ([7]; 500 g ai/ha) | Plant response rating, Ragweed ([8]; 125 g ai/ha) | Plant response rating, Corn (corn (Zea mays); 125 g ai/ha) | Plant response rating, Corn (corn (Zea mays); 500 g ai/ha) | Plant response rating, Pigweed ([9]; 125 g ai/ha) | Plant response rating, Pigweed ([9]; 500 g ai/ha) | Plant response rating, Ducksalad [10] | other results
O=C(Nc1cccc(C(F)(F)F)c1)C1CNC(=O)C1C(=O)Nc1cccc(F)c1F (centres unmarked) [Compound 18] | 0 | 0 | 20 | 50 | 0 | 20 | 20 | 30 | 20 | 30 | 0 | 0 | 0 | 30 | 0 | 0 | 0 | 0 | 0 | 40 | Plant response rating, Kochia (kochia (Kochia scoparia) [11]; 125 g ai/ha): 0; Plant response rating, Kochia (kochia (Kochia scoparia) [11]; 500 g ai/ha): 0; Plant response rating, Ragweed ([12]; 125 g ai/ha): 0; Plant response rating, Ragweed ([12]; 500 g ai/ha): 0; Plant response rating, Kochia (kochia (Kochia scoparia) [13]; 125 g ai/ha): 0; Plant response rating, Kochia (kochia (Kochia scoparia) [13]; 500 g ai/ha): 0; Plant response rating, Barnyardgrass ([14]; 125 g ai/ha): 20; Plant response rating, Barnyardgrass ([14]; 500 g ai/ha): 30; Plant response rating, Sedge, Umbrella [15]: 0; Plant response rating, Rice (rice (Oryza sativa)): 15; Plant response rating, Galium ([16]; 125 g ai/ha): 0; Plant response rating, Galium ([16]; 500 g ai/ha): 50; Plant response rating, Foxtail, Giant ([17]; 125 g ai/ha): 50; Plant response rating, Foxtail, Giant ([17]; 500 g ai/ha): 60; Plant response rating, Barnyardgrass [18]: 30
O=C1NCC(C#Cc2ccc(F)cc2)C1C(=O)Nc1ccccc1F (centres unmarked) [Compound 19] | 0 | 0 | 0 | 20 | 0 | 0 | 0 | 0 | 0 | 40 | 0 | 0 | 0 | 0 | 0 | 0 | 0 | 0 | 0 | 0 | Plant response rating, Ragweed ([8]; 500 g ai/ha): 0; Plant response rating, Kochia (kochia (Kochia scoparia) [11]; 125 g ai/ha): 0; Plant response rating, Kochia (kochia (Kochia scoparia) [11]; 500 g ai/ha): 0; Plant response rating, Ragweed ([12]; 125 g ai/ha): 0; Plant response rating, Ragweed ([12]; 500 g ai/ha): 0; Plant response rating, Kochia (kochia (Kochia scoparia) [13]; 125 g ai/ha): 0; Plant response rating, Kochia (kochia (Kochia scoparia) [13]; 500 g ai/ha): 0; Plant response rating, Barnyardgrass ([14]; 125 g ai/ha): 0; Plant response rating, Barnyardgrass ([14]; 500 g ai/ha): 50; Plant response rating, Sedge, Umbrella [15]: 0; Plant response rating, Rice (rice (Oryza sativa)): 0; Plant response rating, Galium ([16]; 125 g ai/ha): 0; Plant response rating, Galium ([16]; 500 g ai/ha): 0; Plant response rating, Foxtail, Giant ([17]; 125 g ai/ha): 0; Plant response rating, Foxtail, Giant ([17]; 500 g ai/ha): 20; Plant response rating, Barnyardgrass [18]: 0
O=C1NCC(CCc2ccccc2)C1C(=O)Nc1ccccc1F (centres unmarked) [Compound 20] | 0 | 0 | 0 | 0 | 0 | 0 | 0 | 0 | 0 | 0 | 0 | 0 | 0 | 0 | 0 | 0 | 0 | 0 | 0 | 50 | Plant response rating, Ragweed ([8]; 500 g ai/ha): 0; Plant response rating, Kochia (kochia (Kochia scoparia) [11]; 125 g ai/ha): 0; Plant response rating, Kochia (kochia (Kochia scoparia) [11]; 500 g ai/ha): 0; Plant response rating, Ragweed ([12]; 125 g ai/ha): 0; Plant response rating, Ragweed ([12]; 500 g ai/ha): 0; Plant response rating, Kochia (kochia (Kochia scoparia) [13]; 125 g ai/ha): 0; Plant response rating, Kochia (kochia (Kochia scoparia) [13]; 500 g ai/ha): 0; Plant response rating, Barnyardgrass ([14]; 125 g ai/ha): 0; Plant response rating, Barnyardgrass ([14]; 500 g ai/ha): 0; Plant response rating, Sedge, Umbrella [15]: 0; Plant response rating, Rice (rice (Oryza sativa)): 0; Plant response rating, Galium ([16]; 125 g ai/ha): 0; Plant response rating, Galium ([16]; 500 g ai/ha): 0; Plant response rating, Foxtail, Giant ([17]; 125 g ai/ha): 0; Plant response rating, Foxtail, Giant ([17]; 500 g ai/ha): 0; Plant response rating, Barnyardgrass [18]: 0
Cc1cccc(C#CC2CNC(=O)C2C(=O)Nc2ccccc2F)c1 (centres unmarked) [Compound 21] | 0 | 0 | 0 | 20 | 0 | 20 | 0 | 0 | 0 | 50 | 0 | 0 | 0 | 0 | 0 | 0 | 0 | 0 | 0 | 40 | Plant response rating, Ragweed ([8]; 500 g ai/ha): 0; Plant response rating, Kochia (kochia (Kochia scoparia) [11]; 125 g ai/ha): 0; Plant response rating, Kochia (kochia (Kochia scoparia) [11]; 500 g ai/ha): 0; Plant response rating, Ragweed ([12]; 125 g ai/ha): 0; Plant response rating, Ragweed ([12]; 500 g ai/ha): 0; Plant response rating, Kochia (kochia (Kochia scoparia) [13]; 125 g ai/ha): 0; Plant response rating, Kochia (kochia (Kochia scoparia) [13]; 500 g ai/ha): 0; Plant response rating, Barnyardgrass ([14]; 125 g ai/ha): 20; Plant response rating, Barnyardgrass ([14]; 500 g ai/ha): 80; Plant response rating, Sedge, Umbrella [15]: 0; Plant response rating, Rice (rice (Oryza sativa)): 0; Plant response rating, Galium ([16]; 125 g ai/ha): 0; Plant response rating, Galium ([16]; 500 g ai/ha): 0; Plant response rating, Foxtail, Giant ([17]; 125 g ai/ha): 0; Plant response rating, Foxtail, Giant ([17]; 500 g ai/ha): 0; Plant response rating, Barnyardgrass [18]: 0
